Source: article PMC9868654, “Discovery of a potent olaparib–chlorambucil hybrid inhibitor of PARP1 for the treatment of cancer” (Frontiers in Pharmacology, 2023)

Tests used:
PARP1 = PARP1 (Homo sapiens, UniProt P09874); assay: PARP1 enzyme inhibitory assay; assay type: biochemical; details: Table 2, B and C series; mean of three experiments
8226 cells = assay: In vitro antiproliferative assay (CCK-8); assay type: cell-based; details: 8226, without BRCA mutations; CCK-8, 72 h; mean of three
Method: (§1) The proliferation of cancer cells was tested by CCK-8 assay. Briefly, cells were seeded in 96-well plates at approximately 5 × 10^3 cells per well. The cells were treated with test compounds after 24 h of incubation. CCK-8 reagent ([…]) was added to each well after 72 h of incubation, and the cells were then incubated at 37°C for 4 h. The light absorbance at 450 nm was measured using an Opsys microplate reader (Dynex Technologies, Chantilly, VA, United States). Results are illustrated as percentage viability normalized to DMSO-treated control cells.

A549 cells = assay: In vitro antiproliferative assay (CCK-8); assay type: cell-based; details: Homo sapiens; A549, without BRCA mutations; CCK-8, 72 h; mean of three
Method: as §1

B16 cells = assay: In vitro antiproliferative assay (CCK-8); assay type: cell-based; details: Mus musculus; B16, without BRCA mutations; CCK-8, 72 h; mean of three
Method: as §1

CH151 cells = assay: In vitro antiproliferative assay (CCK-8); assay type: cell-based; details: CH151, without BRCA mutations; CCK-8, 72 h; mean of three
Method: as §1

Capan-1 cells = assay: In vitro antiproliferative assay (CCK-8); assay type: cell-based; details: Homo sapiens; Capan-1, BRCA-mutated; CCK-8, 72 h; mean of three
Method: as §1

HCC1937 cells = assay: In vitro antiproliferative assay (CCK-8); assay type: cell-based; details: Homo sapiens; HCC1937, BRCA-mutated; CCK-8, 72 h; mean of three
Method: as §1

Hela cells = assay: In vitro antiproliferative assay (CCK-8); assay type: cell-based; details: Homo sapiens, without BRCA mutations, CCK-8, 72 h, mean of three
Method: as §1

K562 cells [1] = assay: In vitro antiproliferative assay (CCK-8); assay type: cell-based; details: Homo sapiens; K562, without BRCA mutations; CCK-8, 72 h; mean of three
Method: as §1

MCF-7 cells = assay: In vitro antiproliferative assay (CCK-8); assay type: cell-based; details: Homo sapiens, MCF7; MCF-7, without BRCA mutations; CCK-8, 72 h; mean of three
Method: as §1

MDA-MB-231 cells = assay: In vitro antiproliferative assay (CCK-8); assay type: cell-based; details: Homo sapiens; MDA-MB-231, without BRCA mutations; CCK-8, 72 h; mean of three
Method: as §1

MDA-MB-436 cells = assay: In vitro antiproliferative assay (CCK-8); assay type: cell-based; details: Homo sapiens; MDA-MB-436, BRCA-mutated; CCK-8, 72 h; mean of three
Method: as §1

Raji cells = assay: In vitro antiproliferative assay (CCK-8); assay type: cell-based; details: Homo sapiens, without BRCA mutations, CCK-8, 72 h, mean of three
Method: as §1

SKOV3 cells = assay: In vitro antiproliferative assay (CCK-8); assay type: cell-based; details: Homo sapiens, SK-OV-3; SKOV3, without BRCA mutations; CCK-8, 72 h; mean of three
Method: as §1

SW620 cells = assay: In vitro antiproliferative assay (CCK-8); assay type: cell-based; details: Homo sapiens, SW-620; SW620, without BRCA mutations; CCK-8, 72 h; mean of three
Method: as §1

U251 cells = assay: In vitro antiproliferative assay (CCK-8); assay type: cell-based; details: Homo sapiens, U-251; U251, without BRCA mutations; CCK-8, 72 h; mean of three
Method: as §1

U87 cells = assay: In vitro antiproliferative assay (CCK-8); assay type: cell-based; details: Homo sapiens, U-87 MG; U87, without BRCA mutations; CCK-8, 72 h; mean of three
Method: as §1

K562 cells [2] = assay: Cell cycle analysis (PI staining, flow cytometry); assay type: cell-based; details: for effect on cell cycle (in words): K562, 24 h, C2 1.25–5.0 µM, olaparib and chlorambucil 2.5–10 µM
Method: K562 and HCC1937 cells were incubated with different doses of molecule C2, olaparib, or chlorambucil for 24 h. After treatment, cells were collected and fixed with 70% pre-chilled ethanol in PBS and stored at −20°C overnight. The cells were then washed twice with PBS, incubated with 100 μg/ml RNase I (Solarbio, China) at 37°C for 1 h, and stained with propidium iodide (PI, 10 μg/ml, Solarbio, China) for 30 min, in the dark, at room temperature. Finally, the DNA content was measured using flow cytometry (FACSAria III, Becton Dickinson, United States). The data were analyzed and fitted using ModFit software.

K562 cells [3] = assay: Cell apoptosis analysis (Annexin V-BV421/7-AAD, flow cytometry); assay type: cell-based; details: 24 h, control .90%
Method: K562 cells were treated with various concentrations of molecule C2, olaparib, or chlorambucil for 24 h. Cells were then harvested and washed twice with PBS and then resuspended with binding buffer (Becton Dickinson, United States). Cells were incubated with Annexin V-BV421 (Becton Dickinson, United States) and 7-AAD (Becton Dickinson, United States) for double labeling for 30 min, in the dark, at room temperature, followed by analysis using flow cytometry (FACSAria III, Becton Dickinson, United States). The data were analyzed using FlowJo v10 software.

[4] = parameters: method as in Gala et al., 2020; details: in both aqueous and lipophilic solutions; ref Gala et al., 2020; cited from earlier work
[5] = parameters: method as in Jackson and Chester, 2015; details: ref Jackson and Chester, 2015; cited from earlier work

PARP1, sequence (P09874 whole entry): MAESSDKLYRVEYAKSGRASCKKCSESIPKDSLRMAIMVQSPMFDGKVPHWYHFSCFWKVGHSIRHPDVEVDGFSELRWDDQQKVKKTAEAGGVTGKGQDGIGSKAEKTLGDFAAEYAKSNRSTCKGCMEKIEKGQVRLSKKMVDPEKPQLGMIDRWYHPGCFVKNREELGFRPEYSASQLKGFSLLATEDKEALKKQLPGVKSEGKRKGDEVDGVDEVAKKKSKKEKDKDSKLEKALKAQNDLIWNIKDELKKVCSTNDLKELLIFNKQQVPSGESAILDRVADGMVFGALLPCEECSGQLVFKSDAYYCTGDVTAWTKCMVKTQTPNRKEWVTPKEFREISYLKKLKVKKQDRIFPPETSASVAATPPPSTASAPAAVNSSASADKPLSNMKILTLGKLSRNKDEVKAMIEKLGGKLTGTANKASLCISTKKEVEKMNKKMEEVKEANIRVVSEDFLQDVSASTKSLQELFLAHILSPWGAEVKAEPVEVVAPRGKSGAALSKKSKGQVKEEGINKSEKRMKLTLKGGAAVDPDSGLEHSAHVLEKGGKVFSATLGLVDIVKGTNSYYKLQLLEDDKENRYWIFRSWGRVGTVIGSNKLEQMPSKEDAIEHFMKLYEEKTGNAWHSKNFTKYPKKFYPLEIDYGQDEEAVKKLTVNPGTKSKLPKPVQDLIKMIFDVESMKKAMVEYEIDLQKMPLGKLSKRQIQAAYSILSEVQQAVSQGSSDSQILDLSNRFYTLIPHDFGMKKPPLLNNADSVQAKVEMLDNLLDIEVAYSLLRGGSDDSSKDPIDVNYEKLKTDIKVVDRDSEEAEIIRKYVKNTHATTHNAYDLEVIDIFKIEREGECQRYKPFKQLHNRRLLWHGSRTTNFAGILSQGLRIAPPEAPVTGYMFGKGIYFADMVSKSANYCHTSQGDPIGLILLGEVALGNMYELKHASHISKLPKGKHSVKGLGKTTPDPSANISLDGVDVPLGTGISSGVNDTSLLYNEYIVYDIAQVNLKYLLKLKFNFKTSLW

SMILES | IC50 (8226 cells) [µM] | IC50 (A549 cells) [µM] | IC50 (B16 cells) [µM] | IC50 (CH151 cells) [µM] | IC50 (Capan-1 cells) [µM] | IC50 (HCC1937 cells) [µM] | IC50 (Hela cells) [µM] | IC50 (K562 cells [1]) [µM] | IC50 (MCF-7 cells) [µM] | IC50 (MDA-MB-231 cells) [µM] | IC50 (MDA-MB-436 cells) [µM] | IC50 (Raji cells) [µM] | IC50 (SKOV3 cells) [µM] | IC50 (SW620 cells) [µM] | IC50 (U251 cells) [µM] | IC50 (U87 cells) [µM] | effect on cell cycle (in words) (K562 cells [2]) | percentage of apoptotic cells (apoptotic rate) (K562 cells [3]; K562, 5 μM) [%] | percentage of apoptotic cells (apoptotic rate) (K562 cells [3]; K562, 10 µM) [%] | also measured
O=C(CCCc1ccc(N(CCCl)CCCl)cc1)N1CCN(C(=O)c2cc(Cc3n[nH]c(=O)c4ccccc34)ccc2F)CC1 [C2, 4-(3-(4-(4-(4-(Bis(2-chloroethyl)amino)phenyl)butanoyl)piperazine-1-carbonyl)-4-fluorobenzyl)phthalazin-1(2H)-one] | 3.62 ± 0.2 | 2.01 ± 0.13 | 11.7 ± 1.01 | 2.77 ± 0.13 | 0.086 ± 0.006 | 0.18 ± 0.01 | 1.65 ± 0.11 | 1.12 ± 0.08 | 2.28 ± 0.11 | 6.33 ± 0.35 | 0.013 ± 0.001 | 1.21 ± 0.02 | 4.04 ± 0.25 | 6.41 ± 0.46 | 2.58 ± 0.14 | 2.86 ± 0.01 | increased cell number at the G2/M phase in a dose-dependent manner |  |  | IC50 (PARP1): 0.0009 ± 8e-05 µM; percentage of apoptotic cells (apoptotic rate) (K562 cells [3]; K562, 1 μM): 10.96%; percentage of apoptotic cells (apoptotic rate) (K562 cells [3]; K562, 2 µM): 12.69%
O=C(O)CCCc1ccc(N(CCCl)CCCl)cc1 [Chlorambucil] | > 100 | 89.4 ± 3.4 | > 100 | > 100 | > 1 | > 1 | > 100 | > 20 | 19.5 ± 1.7 | 95.3 ± 5.7 | > 1 | 40.6 ± 3.6 | 3.98 ± 0.22 | 10 ± 1.01 | 21.1 ± 1.8 | > 100 | increased cell number at the G2/M phase in a dose-dependent manner | 2.49 | 2.96 | proportion of cells in the G2/M phase (K562 cells [2]; K562, 10 µM, 24 h): 61.60%
O=C(c1cc(Cc2n[nH]c(=O)c3ccccc23)ccc1F)N1CCN(C(=O)C2CC2)CC1 [Olaparib] | 66.8 ± 5.5 | 1.62 ± 0.11 | > 100 | 24.9 ± 1.5 | 0.129 ± 0.011 | 0.24 ± 0.01 | 11.6 ± 1.01 | 10.4 ± 0.72 | 30.6 ± 2.1 | 53.8 ± 3.6 | 0.047 ± 0.003 | 4.4 ± 0.33 | 12.8 ± 1.2 | 17.7 ± 1.2 | > 100 | 26 ± 1.2 | did not exhibit any effects | 1.53 | 1.91 | solubility [4]: low solubility; pharmacokinetics profiles and bioavailability [5]: relatively poor
